Values of other authors in patent US20220023282A1 (priority 2018, published 2022).

Tested on: Mycobacterium tuberculosis isolates
Conditions: variety of Mycobacterium tuberculosis isolates, regardless of resistance to other anti-TB drugs; cited from earlier work

COc1nc2ccc(Br)cc2cc1[C@@H](c1ccccc1)[C@@](O)(CCN(C)C)c1cccc2ccccc12 [bedaquiline, (1R,2S)-1-(6-bromo-2-methoxyquinolin-3-yl)-4-(dimethylamino)-2-(naphthalen-1-yl)-1-phenylbutan-2-ol]
Minimum Inhibitory Concentration (MIC) 99: 0.01 to 0.1 µg/mL
